Experimental data taken from patent US11753379B2, “Process for forming 2-hydroxypyridine-1-oxide or derivatives thereof” (Clariant International Ltd., priority 2018, dated 2023).
Counter-ions that a name gives are not always drawn.

Experiments:
[1] = tested on: Malassezia furfur DSM 6170; experiment: MIC test, efficacy versus microbes; type: cell-based; settings: DSM6170, pH 6.5, Octopirox tested as 5%, Piroctone as 3.98% in butylpolyglycol, read-out: MIC in ppm pH 6.5 (Malassezia Agar)
Protocol: (§1) A compound according to Formula (2), namely 1-hydroxy-4-methyl-6-(2,4,4-trimethyl pentyl)-2(1H)-pyridone (named as Piroctone in the below table), is tested for efficacy versus various microbes. Comparison is made versus Piroctone Olamine (=Octopirox®).

[2] = tested on: Saccharomyces cerevisiae DSM 70449; experiment: MIC test, efficacy versus microbes; type: cell-based; settings: DSM70449, pH 6.5, Octopirox tested as 5%, Piroctone as 3.98% in butylpolyglycol, read-out: MIC in ppm pH 6.5 (Malassezia Agar)
Protocol: as §1

[3] = tested on: Malassezia pachydermatis DSM 6172; experiment: MIC test, efficacy versus microbes; type: cell-based; settings: DSM6172, pH 6.5, Octopirox tested as 5%, Piroctone as 3.98% in butylpolyglycol, read-out: MIC in ppm pH 6.5 (Malassezia Agar)
Protocol: as §1

[4] = tested on: Candida albicans DSM 1386; experiment: MIC test, efficacy versus microbes; type: cell-based; settings: DSM1386, pH 6.5, Octopirox tested as 5%, Piroctone as 3.98% in butylpolyglycol, read-out: MIC in ppm pH 6.5 (Malassezia Agar)
Protocol: as §1

[5] = tested on: Malassezia globosa ATCC 4889; experiment: MIC test, efficacy versus microbes; type: cell-based; settings: ATCC4889, pH 6.5, Octopirox tested as 5%, Piroctone as 3.98% in butylpolyglycol, read-out: MIC in ppm pH 6.5 (Malassezia Agar)
Protocol: as §1

various microbes = experiment: MIC tests overall, comparison versus Piroctone Olamine; type: cell-based
Protocol: as §1

[6] = Solubility testing in various solvents; type: physicochemical; settings: for Solubility: directly after addition and after standing for a week
Protocol: A compound according to Formula (2), namely 1-hydroxy-4-methyl-6-(2,4,4-trimethylpentyl)-2(1H)-pyridone, is tested for solubility in various solvents. A 10% (w/w) solution of this compound is tested. The solubility is tested directly after addition as well as after being left to stand for a week.

**Q.** For `Cc1cc(CC(C)CC(C)(C)C)n(O)c(=O)c1` (stereo not shown) [Octopirox, monoethanolamine salt of 1-hydroxy-4-methyl-6-(2,4,4-trimethylpentyl)-2(1H)-pyridone], which MIC [1] is on record?
**A.** Its MIC is 500 µg/mL.

**Q.** And the MIC [2]?
**A.** Its MIC is 500 µg/mL.

**Q.** And the MIC [3]?
**A.** Its MIC is 500 µg/mL.

**Q.** What about the MIC [4] of the same molecule?
**A.** Its MIC is 500 µg/mL.

**Q.** What about the MIC [5] of the same molecule?
**A.** The MIC was 500 µg/mL.

**Q.** Which results are given for `Cc1cc(CC(C)CC(C)(C)C)n(O)c(=O)c1` (stereo not shown) [Piroctone, 1-hydroxy-4-methyl-6-(2,4,4-trimethylpentyl)-2(1H)-pyridone]?
**A.** Mass efficacy better than Piroctone Olamine (various microbes; antimicrobial efficacy per mass): around 20%; Activity in MIC tests compared with Piroctone Olamine (various microbes; conclusion from Experiment 2): same activity in MIC tests at a lower concentration than Piroctone Olamine; Comments (solubility observation) ([6]; 10% (w/w) in 1,3-Dioxolane): Not soluble.; Comments (solubility observation) ([6]; 10% (w/w) in 2-Methyltetrahydrofuran): Not soluble.; Comments (solubility observation) ([6]; 10% (w/w) in 3-Pentanone): Not completely soluble, supernatant; Comments (solubility observation) ([6]; 10% (w/w) in Acetone (purity >99%)): Dissolves to a large extend.; Comments (solubility observation) ([6]; 10% (w/w) in Ethanol): Dissolves slowly leading to a clear; Comments (solubility observation) ([6]; 10% (w/w) in Isopropanol): Not completely dissolved,; Comments (solubility observation) ([6]; 10% (w/w) in Methanol): Soluble. Resulting soltuion is clear.; Solubility ([6]; 10% (w/w) solution in 1,3-Dioxolane): no; Solubility ([6]; 10% (w/w) solution in 2-Methyltetrahydrofuran): no; Solubility ([6]; 10% (w/w) solution in 3-Pentanone): no; Solubility ([6]; 10% (w/w) solution in Acetone (purity >99%)): no; Solubility ([6]; 10% (w/w) solution in Ethanol): excellently and yes; Solubility ([6]; 10% (w/w) solution in Isopropanol): no; Solubility ([6]; 10% (w/w) solution in Methanol): excellently and yes; Solubility ([6]; 10% (w/w) solution in tert. Butanol (2.5% H2O)): no
